Assay results from US20250197447A1, “PEPTIDE HAVING ANTI-AGING ACTIVITY, AND USE THEREOF” (CAREGEN CO., LTD., priority 2021, published 2025).

Assays:
[1] = system: NIH3T3 cells (mouse fibroblast cell line); experiment: Intracellular reactive oxygen species (ROS) level after UVA irradiation, DCFH-DA / FACS; format: cell-based; details: peptide 10, 50, 100 μM for 1 hour before 8 J/cm^2 UVA, 24 hours culture, FIG. 1
Method: The reactive oxygen species level increases when UV is irradiated. Therefore, it was confirmed whether the reactive oxygen species level decreased again and the aging phenomenon caused by oxidative stress in cells was inhibited when treated with the peptide of the present invention.
(§1) First, NIH3T3 cells (mouse fibroblast cell line) were seeded in a 6-well plate at a cell density of 5×10^5 cell/well, and then the cells were cultured in DMEM medium containing 10% fetal bovine serum (FBS) for 24 hours. The cultured cells were washed once with serum free DMEM medium, and the peptide of the present invention was mixed in 1 mL of the serum free DMEM medium at each of concentrations of 10, 50, and 100 μM, and then dispensed into the cells. A positive control (PC) was treated with 7.5 mM of N-Acetylcysteine (NaC) instead of the above peptide.
The cells were cultured in a CO2 incubator at 37° C. for 1 hour. The medium of the cultured cells was transferred to a tube, 1 ml of PBS was added, and irradiation was performed with 8 J/cm^2 of UVA using a UV irradiator (VILBER LOURMAT, Cat No.: 3102-BSU, France). After removing PBS, 900 μL of the medium transferred to the tube was treated again, and culture was performed in a CO2 incubator at 37° C. for 24 hours. […] After centrifugation, the cells were washed with PBS, and a fluorescence value was measured through FACS.

collagen (Col1a1) = experiment: RT-PCR of collagen (Col1a1) mRNA decreased by UV irradiation in fibroblasts; format: cell-based, mouse; details: NIH3T3 cells; peptide 10, 50, 100 μM before 6 J/cm^2 UVA; 6 hours culture; FIGS. 2A, 2B
Method: (§2) Expression of collagen, fibronectin, and elastin genes constituting the extracellular matrix (ECM) is inhibited when irradiated with UV. Therefore, it was confirmed whether the photoaging phenomenon of the cells was inhibited by confirming whether the expression levels of collagen, fibronectin, and elastin genes were restored and increased when treated with the peptide of the present invention.
(§3) First, NIH3T3 cells were seeded in a 6-well plate at a cell density of 5×10^5 cell/well, and then the cells were cultured in DMEM medium containing 10% fetal bovine serum (FBS) for 24 hours. The cultured cells were washed once with serum free DMEM medium, and the peptide of the present invention was mixed in 1 mL of the serum free DMEM medium at each of concentrations of 10, 50, and 100 μM, and dispensed into the cells. A positive control (PC) was treated with 50 μM of Quercetin instead of the above peptide.
(§4) The cells were cultured in a CO2 incubator at 37° C. for 1 hour. […] The amount of RNA isolated was quantified, 1,000 ng of RNA per tube was added, and reverse transcription into cDNA was performed using a kit (enzynomics, Cat. No.: RT200, Korea), and RT-PCR was performed using a PCR kit (enzynomics, Cat. No.: P581T, Korea). […]

fibronectin = experiment: RT-PCR of fibronectin mRNA decreased by UV irradiation in fibroblasts; format: cell-based, mouse; details: NIH3T3 cells; peptide 10, 50, 100 μM before 6 J/cm^2 UVA; 6 hours culture; FIGS. 2A, 2C
Method: as §2, §3, §4

elastin = experiment: RT-PCR of elastin mRNA decreased by UV irradiation in fibroblasts; format: cell-based, mouse; details: NIH3T3 cells; peptide 10, 50, 100 μM before 6 J/cm^2 UVA; 6 hours culture; FIGS. 2A, 2D
Method: as §2, §3, §4

[2] = system: apoptotic-inducing factors (Cleaved PARP-1, Bax, Cleaved Caspase-3); experiment: Western blot of apoptotic-inducing factors increased by UV irradiation in NIH3T3 fibroblasts; format: cell-based, mouse; details: peptide 10, 50, 100 μM before 6 J/cm^2 UVA, 48 hours culture, FIGS. 3A to 3D
Method: Expression of the apoptotic-inducing factors increases when irradiated with UV. Therefore, it was confirmed whether the photoaging phenomenon of the cells was inhibited and the damaged cells were regenerated by confirming whether the increased expression levels of the apoptotic-inducing factors such as cleaved PARP-1, cleaved Caspase-3, and […] decreased again when treated with the peptide of the present invention.
as §1, with “NIH3T3 cells were seeded” for “NIH3T3 cells (mouse fibroblast cell line) were seeded”, “μM, and dispensed into” for “μM, and then dispensed into”, “treated with 2.5 mM of” for “treated with 7.5 mM of”
(§5) The cells were cultured in a CO2 incubator at 37° C. for 1 hour, the medium of the cultured cells was transferred to a tube, 1 mL of PBS was added, and then irradiation was performed with 6 J/cm^2 of UVA using a UV irradiator (VILBER LOURMAT, Cat No.: 3102-BSU, France). After removing PBS, 900 μL of the medium transferred to the tube was added again, and culture was performed in a CO2 incubator at 37° C. for 48 hours. […]

MMP-1 [3] = experiment: Western blot of MMP-1 increased by UV irradiation in fibroblasts; format: cell-based, mouse; details: NIH3T3 cells; peptide 10, 50, 100 μM before 6 J/cm^2 UVA; 48 hours culture; FIGS. 4A, 4B
Method: (§6) The expression of MMP-1 and MMP-2 encoding proteins related to collagen degradation is increased by ultraviolet irradiation. Therefore, it was confirmed whether the synthesis of the MMP-1 and MMP-2 proteins was inhibited again and the cell aging phenomenon was inhibited when treated with the peptide of the present invention.
as §1, with “NIH3T3 cells were seeded” for “NIH3T3 cells (mouse fibroblast cell line) were seeded”, “μM, and dispensed into” for “μM, and then dispensed into”, “treated with 2.5 mM of” for “treated with 7.5 mM of”
as §5, with “hour. The” for “hour, the”, “ml” for “mL”, “and” for “and then”, “added,” for “added again,”

MMP-2 = experiment: Gelatin zymography of MMP-2 in culture medium after UV irradiation of fibroblasts; format: cell-based, mouse; details: NIH3T3 cells, peptide 10, 50, 100 μM before 6 J/cm^2 UVA, 48 hours culture, FIGS. 4A, 4C
Method: as §6
as §1, with “NIH3T3 cells were seeded” for “NIH3T3 cells (mouse fibroblast cell line) were seeded”, “μM, and dispensed into” for “μM, and then dispensed into”, “treated with 2.5 mM of” for “treated with 7.5 mM of”
as §5, with “hour. The” for “hour, the”, “ml” for “mL”, “and” for “and then”, “added,” for “added again,”

MMP-1 [4] = experiment: Western blot of MMP-1 increased by heat treatment in fibroblasts; format: cell-based, mouse; details: NIH3T3 cells; peptide 10, 50, 100 μM for 24 hours before 44° C. for 40 minutes; 8 hours culture; FIGS. 5A, 5B
Method: The expression of MMP-1 encoding proteins related to collagen degradation increases by heat treatment. Therefore, it was confirmed whether the synthesis of the MMP-1 protein was inhibited again and the cell aging phenomenon was inhibited when treated with the peptide of the present invention.
as §1, with “NIH3T3 cells were seeded” for “NIH3T3 cells (mouse fibroblast cell line) were seeded”, “μM, and dispensed into” for “μM, and then dispensed into”, “treated with 2.5 mM of” for “treated with 7.5 mM of”, “N-Acetylcysteine (NaC) or 2 mM of Glutathione (GSH) instead of” for “N-Acetylcysteine (NaC) instead of”
The cells were cultured in a CO2 incubator at 37° C. for 24 hours. A lid and a lower plate of the 6-well plate were sealed with a paraffin film for heat treatment, the lower plate was immersed in a water bath at 44° C., and culture was performed for 40 minutes. After removing the medium, 1 mL of the serum free DMEM medium was added, and culture was performed in a CO2 incubator at 37° C. for 8 hours. Thereafter, the cells were washed twice with PBS, and then a cell lysis buffer was added to obtain a lysate. […]

With “LKKNGSCKRGPRTHYGQK [peptide of the present invention]” the “intracellular reactive oxygen species level increased by ultraviolet irradiation” value [1] was “decreased”, the “mRNA expression of collagen decreased by UV irradiation” value (collagen (Col1a1)) was “increased” and the “mRNA expression of fibronectin decreased by UV irradiation” value (fibronectin) was “increased”. For the same sequence, the “mRNA expression of elastin decreased by UV irradiation” value (elastin) was “increased”, the “expression of the apoptotic-inducing factors increased in the cells damaged by UV irradiation” value [2] was “decreased” and the “expression and activity of MMP-1 increased by UV irradiation” value (MMP-1 [3]) was “inhibited”. For the same sequence, the “expression and activity of MMP-2 increased by UV irradiation” value (MMP-2) was “inhibited” and the “amount of MMP-1 protein whose expression was increased by heat treatment” value (MMP-1 [4]) was “decreased”.
